Results from a compilation of properties of binary mixtures (doi:10.1016/j.jct.2023.107038).

Test: xn = mol fraction of the nth substance listed
Settings: 96.7 kPa

SMILES: OCC(F)(F)F + CC(=O)[O-].CC[n+]1ccn(C)c1
- viscosity (293.15 K, x1 = 0.048): 157 mPa·s
- viscosity (293.15 K, x1 = 0.103): 138 mPa·s
- viscosity (293.15 K, x1 = 0.298): 69 mPa·s
- viscosity (293.15 K, x1 = 0.402): 46.1 mPa·s
- viscosity (293.15 K, x1 = 0.801): 6.2 mPa·s
- viscosity (293.15 K, x1 = 1): 2.01 mPa·s
- viscosity (298.15 K, x1 = 0.103): 104 mPa·s
- viscosity (298.15 K, x1 = 0.204): 75 mPa·s
- viscosity (298.15 K, x1 = 0.298): 54 mPa·s
- viscosity (298.15 K, x1 = 0.603): 14.6 mPa·s
- viscosity (298.15 K, x1 = 0.801): 5.5 mPa·s
- viscosity (298.15 K, x1 = 1): 1.8 mPa·s
- viscosity (303.15 K, x1 = 0.103): 79 mPa·s
- viscosity (303.15 K, x1 = 0.204): 59 mPa·s
- viscosity (303.15 K, x1 = 0.298): 42.9 mPa·s
- viscosity (303.15 K, x1 = 0.603): 12.4 mPa·s
- viscosity (303.15 K, x1 = 0.801): 4.85 mPa·s
- viscosity (303.15 K, x1 = 1): 1.59 mPa·s
- viscosity (308.15 K, x1 = 0.048): 67 mPa·s
- viscosity (308.15 K, x1 = 0.103): 61 mPa·s
- viscosity (308.15 K, x1 = 0.298): 34.7 mPa·s
- viscosity (308.15 K, x1 = 0.402): 24.2 mPa·s
- viscosity (308.15 K, x1 = 0.603): 11 mPa·s
- viscosity (308.15 K, x1 = 0.801): 4.32 mPa·s
- viscosity (308.15 K, x1 = 1): 1.41 mPa·s
- viscosity (313.15 K, x1 = 0.048): 53 mPa·s
- viscosity (313.15 K, x1 = 0.103): 48.5 mPa·s
- viscosity (313.15 K, x1 = 0.204): 37.7 mPa·s
- viscosity (313.15 K, x1 = 0.298): 28.5 mPa·s
- viscosity (313.15 K, x1 = 0.402): 21.1 mPa·s
- viscosity (313.15 K, x1 = 0.603): 9.5 mPa·s
- viscosity (318.15 K, x1 = 0.048): 42.2 mPa·s
- viscosity (318.15 K, x1 = 0.103): 39.2 mPa·s
- viscosity (318.15 K, x1 = 0.204): 30.6 mPa·s
- viscosity (318.15 K, x1 = 0.298): 23.7 mPa·s
- viscosity (318.15 K, x1 = 0.402): 17.6 mPa·s
- viscosity (318.15 K, x1 = 0.801): 3.54 mPa·s
- viscosity (318.15 K, x1 = 1): 1.1 mPa·s
- viscosity (323.15 K, x1 = 0.048): 34.3 mPa·s
- viscosity (323.15 K, x1 = 0.103): 31.6 mPa·s
- viscosity (323.15 K, x1 = 0.204): 25.6 mPa·s
- viscosity (323.15 K, x1 = 0.298): 20 mPa·s
- viscosity (323.15 K, x1 = 0.603): 7.4 mPa·s
- viscosity (323.15 K, x1 = 1): 1.01 mPa·s
- viscosity (328.15 K, x1 = 0.048): 28.4 mPa·s
- viscosity (328.15 K, x1 = 0.103): 26.5 mPa·s
- viscosity (328.15 K, x1 = 0.204): 21.4 mPa·s
- viscosity (328.15 K, x1 = 0.402): 12.9 mPa·s
- viscosity (328.15 K, x1 = 0.603): 6.5 mPa·s
- viscosity (328.15 K, x1 = 0.801): 2.94 mPa·s
- viscosity (328.15 K, x1 = 1): 0.93 mPa·s
- viscosity (333.15 K, x1 = 0.048): 23.7 mPa·s
- viscosity (333.15 K, x1 = 0.204): 18.2 mPa·s
- viscosity (333.15 K, x1 = 0.298): 14.5 mPa·s
- viscosity (333.15 K, x1 = 0.402): 11.3 mPa·s
- viscosity (333.15 K, x1 = 0.801): 2.69 mPa·s

SMILES: OCC(F)(F)F + CC[n+]1ccn(C)c1.O=S(=O)([N-]S(=O)(=O)C(F)(F)F)C(F)(F)F
- viscosity (293.15 K, x1 = 0.099): 32.5 mPa·s
- viscosity (293.15 K, x1 = 0.204): 25.7 mPa·s
- viscosity (293.15 K, x1 = 0.599): 8.3 mPa·s
- viscosity (293.15 K, x1 = 1): 2.01 mPa·s
- viscosity (298.15 K, x1 = 0.051): 30.2 mPa·s
- viscosity (298.15 K, x1 = 0.099): 27.4 mPa·s
- viscosity (298.15 K, x1 = 0.204): 23.1 mPa·s
- viscosity (298.15 K, x1 = 0.303): 17.7 mPa·s
- viscosity (298.15 K, x1 = 0.396): 13.5 mPa·s
- viscosity (298.15 K, x1 = 0.599): 7.3 mPa·s
- viscosity (298.15 K, x1 = 0.799): 3.53 mPa·s
- viscosity (298.15 K, x1 = 1): 1.8 mPa·s
- viscosity (303.15 K, x1 = 0.051): 25.7 mPa·s
- viscosity (303.15 K, x1 = 0.099): 23.4 mPa·s
- viscosity (303.15 K, x1 = 0.204): 19.6 mPa·s
- viscosity (303.15 K, x1 = 0.303): 15.3 mPa·s
- viscosity (303.15 K, x1 = 0.396): 11.7 mPa·s
- viscosity (303.15 K, x1 = 0.799): 3.16 mPa·s
- viscosity (303.15 K, x1 = 1): 1.59 mPa·s
- viscosity (308.15 K, x1 = 0.051): 22 mPa·s
- viscosity (308.15 K, x1 = 0.099): 20 mPa·s
- viscosity (308.15 K, x1 = 0.303): 13.5 mPa·s
- viscosity (308.15 K, x1 = 0.396): 10.3 mPa·s
- viscosity (308.15 K, x1 = 0.599): 5.8 mPa·s
- viscosity (308.15 K, x1 = 0.799): 2.96 mPa·s
- viscosity (313.15 K, x1 = 0.099): 17.6 mPa·s
- viscosity (313.15 K, x1 = 0.204): 14.3 mPa·s
- viscosity (313.15 K, x1 = 0.303): 11.8 mPa·s
- viscosity (313.15 K, x1 = 0.599): 5.2 mPa·s
- viscosity (313.15 K, x1 = 0.799): 2.68 mPa·s
- viscosity (313.15 K, x1 = 1): 1.26 mPa·s
- viscosity (318.15 K, x1 = 0.051): 16.5 mPa·s
- viscosity (318.15 K, x1 = 0.099): 15.2 mPa·s
- viscosity (318.15 K, x1 = 0.204): 13.1 mPa·s
- viscosity (318.15 K, x1 = 0.303): 10.3 mPa·s
- viscosity (318.15 K, x1 = 0.396): 8.2 mPa·s
- viscosity (318.15 K, x1 = 0.799): 2.47 mPa·s
- viscosity (318.15 K, x1 = 1): 1.1 mPa·s
- viscosity (323.15 K, x1 = 0.051): 14.5 mPa·s
- viscosity (323.15 K, x1 = 0.204): 11.5 mPa·s
- viscosity (323.15 K, x1 = 0.303): 9.4 mPa·s
- viscosity (323.15 K, x1 = 0.396): 7.3 mPa·s
- viscosity (323.15 K, x1 = 0.599): 4.3 mPa·s
- viscosity (323.15 K, x1 = 0.799): 2.27 mPa·s
- viscosity (323.15 K, x1 = 1): 1.01 mPa·s
- viscosity (328.15 K, x1 = 0.051): 12.7 mPa·s
- viscosity (328.15 K, x1 = 0.099): 11.8 mPa·s
- viscosity (328.15 K, x1 = 0.204): 10.1 mPa·s
- viscosity (328.15 K, x1 = 0.303): 8.4 mPa·s
- viscosity (328.15 K, x1 = 0.396): 6.8 mPa·s
- viscosity (328.15 K, x1 = 0.599): 3.92 mPa·s
- viscosity (328.15 K, x1 = 1): 0.93 mPa·s
- viscosity (333.15 K, x1 = 0.051): 11.4 mPa·s
- viscosity (333.15 K, x1 = 0.099): 10.7 mPa·s
- viscosity (333.15 K, x1 = 0.204): 9.3 mPa·s
- viscosity (333.15 K, x1 = 0.303): 7.6 mPa·s
- viscosity (333.15 K, x1 = 0.599): 3.59 mPa·s
- viscosity (333.15 K, x1 = 0.799): 1.95 mPa·s

SMILES: CC(=O)[O-].CC[n+]1ccn(C)c1 + OCC(F)(F)F
- viscosity (293.15 K, x2 = 0): 181 mPa·s
- viscosity (298.15 K, x2 = 0): 135 mPa·s
- viscosity (303.15 K, x2 = 0): 100 mPa·s
- viscosity (308.15 K, x2 = 0): 76 mPa·s
- viscosity (323.15 K, x2 = 0): 38.5 mPa·s
- viscosity (328.15 K, x2 = 0): 31.4 mPa·s
- viscosity (333.15 K, x2 = 0): 26 mPa·s

SMILES: CC[n+]1ccn(C)c1.O=S(=O)([N-]S(=O)(=O)C(F)(F)F)C(F)(F)F + OCC(F)(F)F
- viscosity (293.15 K, x2 = 0): 39.2 mPa·s
- viscosity (298.15 K, x2 = 0): 32.9 mPa·s
- viscosity (303.15 K, x2 = 0): 27.8 mPa·s
- viscosity (318.15 K, x2 = 0): 17.6 mPa·s
- viscosity (323.15 K, x2 = 0): 15.4 mPa·s
- viscosity (328.15 K, x2 = 0): 13.6 mPa·s
- viscosity (333.15 K, x2 = 0): 12.2 mPa·s
